{"source": "PubChem BioAssay (NCI)", "assay_in_all_cases": "inhibition of tumour cell growth, NCI panel, 48 h", "key": {"[1]": {"test_system": "HOP-62 NSCLC"}, "[2]": {"test_system": "IGROV1 ovarian"}, "[3]": {"test_system": "DU-145 prostate"}, "[4]": {"test_system": "UO-31 renal"}, "[5]": {"test_system": "OVCAR-5 ovarian"}, "[6]": {"test_system": "SF-539 CNS"}, "[7]": {"test_system": "NCI-H226 lung"}, "[8]": {"test_system": "MALME-3M melanoma"}, "[9]": {"test_system": "MDA-MB-231 breast"}, "[10]": {"test_system": "HL-60(TB) leukemia"}, "[11]": {"test_system": "786-0 renal"}, "[12]": {"test_system": "HCT-15 colon"}, "[13]": {"test_system": "SNB-19 CNS"}, "[14]": {"test_system": "T-47D breast"}, "[15]": {"test_system": "ACHN renal"}, "[16]": {"test_system": "CAKI-1 renal"}, "[17]": {"test_system": "RXF 393 renal"}, "[18]": {"test_system": "NCI-H522 lung"}, "[19]": {"test_system": "HCC-2998 colon"}, "[20]": {"test_system": "NCI/ADR-RES ovarian"}, "[21]": {"test_system": "HCT-116 colon"}, "[22]": {"test_system": "SN12C renal"}, "[23]": {"test_system": "HS 578T breast"}, "[24]": {"test_system": "OVCAR-8 ovarian"}, "[25]": {"test_system": "SNB-75 CNS"}, "[26]": {"test_system": "SF-268 CNS"}, "[27]": {"test_system": "SW-620 colon"}, "[28]": {"test_system": "M14 melanoma"}, "[29]": {"test_system": "A498 renal"}, "[30]": {"test_system": "HOP-92 NSCLC"}, "[31]": {"test_system": "SK-MEL-2 melanoma"}, "[32]": {"test_system": "MDA-MB-435"}, "[33]": {"test_system": "SK-MEL-28 melanoma"}, "[34]": {"test_system": "RPMI-8226 leukemia"}, "[35]": {"test_system": "PC-3 prostate"}, "[36]": {"test_system": "NCI-H23 lung"}, "[37]": {"test_system": "HT29 colon"}, "[38]": {"test_system": "MDA-N"}, "[39]": {"test_system": "TK-10 renal"}, "[40]": {"test_system": "UACC-62 melanoma"}, "[41]": {"test_system": "BT-549 breast"}, "[42]": {"test_system": "LOX IMVI melanoma"}, "[43]": {"test_system": "SF-295 CNS"}, "[44]": {"test_system": "EKVX NSCLC"}, "[45]": {"test_system": "KM12 colon"}, "[46]": {"test_system": "MCF7 breast"}, "[47]": {"test_system": "SK-MEL-5 melanoma"}, "[48]": {"test_system": "UACC-257 melanoma"}, "[49]": {"test_system": "SK-OV-3 ovarian"}, "[50]": {"test_system": "A549 NSCLC"}, "[51]": {"test_system": "NCI-H460 lung"}, "[52]": {"test_system": "OVCAR-4 ovarian"}, "[53]": {"test_system": "COLO 205 colon"}, "[54]": {"test_system": "MOLT-4 leukemia"}, "[55]": {"test_system": "K-562 leukemia"}, "[56]": {"test_system": "U251 CNS"}, "[57]": {"test_system": "SR leukemia"}, "[58]": {"test_system": "OVCAR-3 ovarian"}, "[59]": {"test_system": "CCRF-CEM leukemia"}}, "note": "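The compound was tested at five concentrations on cells cultured in 96-well plates, with a 48-hour exposure period. TGI marks complete inhibition of growth.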"}
{"smiles": "COc1ccc(/C=N/c2nc3cc4sc(/N=C/c5ccc(OC)cc5)nc4cc3s2)cc1", "values": [{"measurement": "TGI", "setting": "[1]", "value": "> 100", "unit": "µM"}, {"measurement": "TGI", "setting": "[2]", "value": "> 100", "unit": "µM"}, {"measurement": "TGI", "setting": "[3]", "value": "> 100", "unit": "µM"}, {"measurement": "TGI", "setting": "[4]", "value": "> 100", "unit": "µM"}, {"measurement": "TGI", "setting": "[5]", "value": "> 100", "unit": "µM"}, {"measurement": "TGI", "setting": "[6]", "value": "> 100", "unit": "µM"}, {"measurement": "TGI", "setting": "[7]", "value": "> 77.8", "unit": "µM"}, {"measurement": "TGI", "setting": "[8]", "value": "> 100", "unit": "µM"}, {"measurement": "TGI", "setting": "[9]", "value": "> 100", "unit": "µM"}, {"measurement": "TGI", "setting": "[10]", "value": "> 100", "unit": "µM"}, {"measurement": "TGI", "setting": "[11]", "value": "> 100", "unit": "µM"}, {"measurement": "TGI", "setting": "[12]", "value": "> 100", "unit": "µM"}, {"measurement": "TGI", "setting": "[13]", "value": "> 100", "unit": "µM"}, {"measurement": "TGI", "setting": "[14]", "value": "> 100", "unit": "µM"}, {"measurement": "TGI", "setting": "[15]", "value": "> 100", "unit": "µM"}, {"measurement": "TGI", "setting": "[16]", "value": "> 100", "unit": "µM"}, {"measurement": "TGI", "setting": "[17]", "value": "> 100", "unit": "µM"}, {"measurement": "TGI", "setting": "[18]", "value": "> 52.7", "unit": "µM"}, {"measurement": "TGI", "setting": "[19]", "value": 71.4, "unit": "µM"}, {"measurement": "TGI", "setting": "[20]", "value": "> 100", "unit": "µM"}, {"measurement": "TGI", "setting": "[21]", "value": "> 100", "unit": "µM"}, {"measurement": "TGI", "setting": "[22]", "value": "> 100", "unit": "µM"}, {"measurement": "TGI", "setting": "[23]", "value": "> 81.8", "unit": "µM"}, {"measurement": "TGI", "setting": "[24]", "value": "> 100", "unit": "µM"}, {"measurement": "TGI", "setting": "[25]", "value": "> 100", "unit": "µM"}, {"measurement": "TGI", "setting": "[26]", "value": "> 100", "unit": "µM"}, {"measurement": "TGI", "setting": "[27]", "value": "> 100", "unit": "µM"}, {"measurement": "TGI", "setting": "[28]", "value": "> 100", "unit": "µM"}, {"measurement": "TGI", "setting": "[29]", "value": "> 100", "unit": "µM"}, {"measurement": "TGI", "setting": "[30]", "value": "> 100", "unit": "µM"}, {"measurement": "TGI", "setting": "[31]", "value": "> 100", "unit": "µM"}, {"measurement": "TGI", "setting": "[32]", "value": 99.5, "unit": "µM"}, {"measurement": "TGI", "setting": "[33]", "value": "> 100", "unit": "µM"}, {"measurement": "TGI", "setting": "[34]", "value": "> 100", "unit": "µM"}, {"measurement": "TGI", "setting": "[35]", "value": "> 100", "unit": "µM"}, {"measurement": "TGI", "setting": "[36]", "value": 97.7, "unit": "µM"}, {"measurement": "TGI", "setting": "[37]", "value": "> 100", "unit": "µM"}, {"measurement": "TGI", "setting": "[38]", "value": "> 100", "unit": "µM"}, {"measurement": "TGI", "setting": "[39]", "value": "> 94.8", "unit": "µM"}, {"measurement": "TGI", "setting": "[40]", "value": "> 100", "unit": "µM"}, {"measurement": "TGI", "setting": "[41]", "value": "> 100", "unit": "µM"}, {"measurement": "TGI", "setting": "[42]", "value": "> 100", "unit": "µM"}, {"measurement": "TGI", "setting": "[43]", "value": "> 100", "unit": "µM"}, {"measurement": "TGI", "setting": "[44]", "value": "> 100", "unit": "µM"}, {"measurement": "TGI", "setting": "[45]", "value": "> 100", "unit": "µM"}, {"measurement": "TGI", "setting": "[46]", "value": "> 88.9", "unit": "µM"}, {"measurement": "TGI", "setting": "[47]", "value": "> 100", "unit": "µM"}, {"measurement": "TGI", "setting": "[48]", "value": "> 100", "unit": "µM"}, {"measurement": "TGI", "setting": "[49]", "value": "> 100", "unit": "µM"}, {"measurement": "TGI", "setting": "[50]", "value": "> 100", "unit": "µM"}, {"measurement": "TGI", "setting": "[51]", "value": "> 100", "unit": "µM"}, {"measurement": "TGI", "setting": "[52]", "value": "> 100", "unit": "µM"}, {"measurement": "TGI", "setting": "[53]", "value": "> 22.4", "unit": "µM"}, {"measurement": "TGI", "setting": "[54]", "value": "> 100", "unit": "µM"}, {"measurement": "TGI", "setting": "[55]", "value": "> 100", "unit": "µM"}, {"measurement": "TGI", "setting": "[56]", "value": "> 100", "unit": "µM"}, {"measurement": "TGI", "setting": "[57]", "value": "> 100", "unit": "µM"}, {"measurement": "TGI", "setting": "[58]", "value": "> 100", "unit": "µM"}, {"measurement": "TGI", "setting": "[59]", "value": "> 45.2", "unit": "µM"}]}
